Target: T1, bovine ABCG2 (Bos taurus, UniProt Q4GZT4)
T1 construct: expressed in transfected cells; host or cells: MDCK-II (canine kidney) subclone generated by the authors' group
T1 sequence (Q4GZT4 1-655): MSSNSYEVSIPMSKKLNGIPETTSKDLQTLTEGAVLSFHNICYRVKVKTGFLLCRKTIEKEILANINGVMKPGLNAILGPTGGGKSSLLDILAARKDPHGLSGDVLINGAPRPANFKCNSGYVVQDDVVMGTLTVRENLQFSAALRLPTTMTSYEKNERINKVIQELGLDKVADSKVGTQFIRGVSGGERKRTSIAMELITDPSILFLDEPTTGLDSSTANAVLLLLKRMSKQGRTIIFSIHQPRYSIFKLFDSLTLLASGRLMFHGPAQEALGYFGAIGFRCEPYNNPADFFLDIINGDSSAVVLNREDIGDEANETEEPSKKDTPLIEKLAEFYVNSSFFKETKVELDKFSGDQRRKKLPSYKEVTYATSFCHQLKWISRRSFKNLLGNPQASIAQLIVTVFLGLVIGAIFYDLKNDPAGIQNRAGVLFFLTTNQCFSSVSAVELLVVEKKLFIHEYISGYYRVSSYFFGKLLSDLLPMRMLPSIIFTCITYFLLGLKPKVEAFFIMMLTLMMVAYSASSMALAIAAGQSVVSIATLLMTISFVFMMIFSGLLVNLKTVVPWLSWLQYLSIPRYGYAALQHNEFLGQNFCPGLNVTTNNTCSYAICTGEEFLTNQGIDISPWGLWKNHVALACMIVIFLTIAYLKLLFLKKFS
Assay: Transepithelial transport assay in MDCK-II cells transduced with bovine ABCG2
Type: in vitro ADME
Conditions: cattle, MDCK-II bABCG2, nitroxynil 10 µM, no Ko143, read-out: Relative efflux transport ratio (BA/AB)
Protocol: Parental Madin–Darby canine kidney epithelial cells (MDCK–II) and their subclones transduced with murine (mAbcg2) and human (hABCG2) variants of ABCG2 were kindly provided by Dr. A. H. Schinkel (Netherlands Cancer Institute). Transduced MDCK–II cells with the ovine (oABCG2) and bovine (bABCG2) variants were previously generated by our group. Cells were cultured as described elsewhere.
Transepithelial transport assays were carried out as previously described with minor variations, using Hanks’ balanced salt solution (Sigma-Aldrich) supplemented with HEPES (25 mM), with or without Ko143 (1 μM), and containing or not nitroxynil 10 μM. […] At the end of the experiment, confluence of the monolayer was measured with the previously described Lucifer Yellow permeability test, with minor modifications. The appearance of nitroxynil in the opposite side of the well was measured by HPLC as later described. Active transport was expressed as relative efflux transport ratio (apically directed transport percentage divided by the basolaterally directed translocation percentage) at 4 h and referred to the initial concentration. […]
Waters 2695 separation module and Waters 2998 UV photodiode array detector set at 270 nm were used for samples analysis. […] Limit of detection (LOD) and quantification (LOQ) were calculated as previously described. […]

- efflux ratio at 4 h, 10 µM: 3.25 ± 0.14
SMILES: N#Cc1cc(I)c(O)c([N+](=O)[O-])c1 [nitroxynil]
